According to patent US9370541B2, “Extract of the above-ground portions of gynandropsis gynandra or cleome gynandra, and cosmetic, dermatological or pharmaceutical compositions including same” (LABORATOIRES EXPANSCIENCE, priority 2010, dated 2016):

Legend:
interleukin 8 (IL8) = assay: Production of IL8 by PMA-stimulated keratinocytes (NCTC-2544), ELISA; assay type: cell-based, Human; settings: 10^−7 M Dexamethasone, 0.1 μg/ml PMA 24 hours
Procedure: At the end of the treatment, the quantities of interleukin 8 (IL8) and prostaglandin E2 (PGE2) secreted were measured by ELISA in the culture supernatants. The results were analyzed statistically by a Student's t-test.

[1] = system: Normal human keratinocytes; assay: Production of ROS in keratinocytes treated with H2O2 (H2DCF-DA probe); assay type: cell-based; settings: 10 μg/ml vitamin C, 24 hours, 100 μM H2O2, 20 minutes
Procedure: The keratinocytes were then stimulated with 100 μM of hydrogen peroxide (H2O2) for 20 minutes. The production of reactive oxygen species (ROS) was evaluated by measuring fluorescence. The results were analyzed statistically by a Student's t-test.

Mastocytes = assay: Release of histamine by mastocytes stimulated by substance P, ELISA; assay type: cell-based; settings: 10 nM Calcium; 10 μM substance P, 15 minutes
Procedure: Mastocytes were preincubated for 30 minutes in the presence of the extract of Gynandropsis gynandra (GG) at a concentration of 0.08% (w/v of active material) or 10 Mm of calcium (reference inhibitor of histamine release).
The mastocytes were then stimulated with 10 μM of substance P for 15 minutes. At the end of incubation, the histamine released was quantified by ELISA.
(§1) The results were analyzed statistically by a Student's t-test.

[2] = system: Cells of the Jurkat cell line; assay: UV-induced lipid peroxidation (flow cytometry); assay type: cell-based; settings: 100 μM BHT; UVA+B irradiation
Procedure: Cells of the Jurkat cell line were preincubated for 45 minutes in the presence of the extract of Gynandropsis gynandra (GG) at a concentration of 0.02% (w/v of active material) or 100 μM of BHT (reference) and in the presence of the fluorescent probe 011-fluorine, specific for lipid peroxidation.
The cells were then irradiated by UVA+B and then incubated for 30 minutes in the presence of GG or BHT.
At the end of incubation, the quantity of lipid peroxides was evaluated by a flow cytometry analysis of fluorescence intensity (inversely proportional to oxidation).
as §1

prostaglandin E2 (PGE2) = assay: Production of PGE2 by PMA-stimulated keratinocytes (NCTC-2544), ELISA; assay type: cell-based, Human; settings: 10^−6 M Indomethacin, 0.1 μg/ml PMA 24 hours
[3] = system: Normal human keratinocytes; assay: Keratinocyte migration after artificial wound; assay type: cell-based; settings: 10 ng/ml of EGF
Procedure: An artificial wound was prepared on a monolayer of normal human keratinocytes.
At 0, 24, 48 and 72 hours, keratinocyte migration was monitored by microphotography and was quantified by measuring the surface area of the wound.
as §1

[4] = system: Normal human epidermal melanocytes; assay: Melanin production by melanocytes; assay type: cell-based; settings: 10^−7 M NDP-MSH alone (stimulated control); 240 hours
Procedure: After incubation, melanin was extracted from the cells and was quantified by spectrophotometry.
as §1

Normal human adipocytes = assay: Lipogenesis in adipocytes ([14C]-acetate incorporation); assay type: cell-based; settings: 20 μM of cerulenin
Procedure: Normal human adipocytes were incubated for 1 hour in the presence of the extract of Gynandropsis gynandra (GG) at a concentration of 0.02% (w/v of active material) or the reference (20 μM of cerulenin). After incubation, the radioactive label [^14C]-acetate was added and the samples were incubated overnight.
At the end of incubation, the lipids were extracted and the radioactivity incorporated (corresponding to the lipogenesis) was measured by liquid scintillation.
as §1

`C[C@@H]1C[C@H]2[C@@H]3CCC4=CC(=O)C=C[C@]4(C)[C@@]3(F)[C@@H](O)C[C@]2(C)[C@@]1(O)C(=O)CO` [Dexamethasone, dexamethasone] was tested, and the “IL8” value (interleukin 8 (IL8)) was 7.4 ± 0.8 ng/mL and the inhibition at 0.1 µM (interleukin 8 (IL8); Homo sapiens, NCTC-2544) was 85%.

In the case of `O=C1O[C@H]([C@@H](O)CO)C(O)=C1O` [vitamin C], the “ROS (fluorescence units)” value [1] is reported as 992.83 ± 93.96 fluorescence units and the inhibition at 10 µg/mL ([1]; Homo sapiens, Keratinocyte) is reported as 33%.

For `[Ca+2]` [Calcium, calcium], the “Histamine” value (Mastocytes) was 21.8 ± 1.0 ng/mL and the “Inhibition of histamine release” value (Mastocytes) was −85% p < 0.01.

With `Cc1cc(C(C)(C)C)c(O)c(C(C)(C)C)c1` [BHT] the “Lipid peroxides (% of irradiated control)” value [2] was 64 % of irradiated control and the “Protection (%)” value [2] was 49% p < 0.01.

`COc1ccc2c(c1)c(CC(=O)O)c(C)n2C(=O)c1ccc(Cl)cc1` [Indomethacin, indomethacin] was tested, and the “PGE2” value (prostaglandin E2 (PGE2)) was 0.039 ± 0.0 ng/mL and the inhibition at 1 µM (prostaglandin E2 (PGE2); Homo sapiens, NCTC-2544) was 100%.

In the case of EGF, the “Migration area (percent of wound covered)” value ([3]; 48 h) is reported as 99 (p < 0.001) percent of wound covered and the “Migration area (percent of wound covered)” value ([3]; 72 h) is reported as 100 (p < 0.001) percent of wound covered.

For NDP-MSH, the “Melanin (μl/ml)” value [4] was 27.1 ± 0.9 μl/ml and the “Stimulation of melanin production” value [4] was “+108% p < 0.001”.

With `C/C=C/C/C=C/CCC(=O)[C@H]1O[C@H]1C(N)=O` [cerulenin] the “Incorporation of acetate (cpm)” value (Normal human adipocytes) was 14934 ± 671 cpm and the inhibition at 20 µM (Normal human adipocytes; Homo sapiens, Adipocyte) was 55%.
